Source: a compilation of properties of binary mixtures (doi:10.1021/acs.jced.0c00618)

Assay: xn = mol fraction of the nth substance listed
Conditions: 101 kPa, x2 = 0.3209

CCCC[n+]1ccn(C)c1.O=S(=O)([O-])C(F)(F)F + NCCO
Conditions	speed of sound [m/s]	viscosity [mPa·s]
298.15 K	1428.8	41.99
303.15 K	1417	34.4
308.15 K	1405.2	28.38
313.15 K	1393.2	23.76
318.15 K	1382.1	20.13
323.15 K	1370.6	17.25
328.15 K	1359.2	14.94
333.15 K	1348	13.05
